Experimental data published in US8697385B1, “Protein controlling synthesis of collagen and associated methods” (Florida State University Research Foundation, Inc., priority 2009, dated 2014).

What was measured:
human lung fibroblasts = experiment: Western blot analysis of cellular and medium collagen polypeptides, lung fibroblasts; format: cell-based; settings: 16 h, ML-7 40 μM, blebbistatin 100 μM, vs control cells
Experimental: ML-7, blebbistatin, cytochalasin B, puromycin, and cycloheximide were purchased from Sigma. ML-7 was used at 40 μM, blebbistatin was used at 100 μM, and cytochalasin B was used at 20 μM. Cells were incubated with the drugs for 16 h before analysis. Puromycin (200 μg/ml) and cycloheximide (100 μg/ml) were added to the cells for 2 h. Human lung fibroblasts have been described previously.16 Scleroderma fibroblasts were purchased from the European Collection of Cell Cultures (cell line BM0070) and derived from the skin of a scleroderma patient. MEFs were derived from knock-in mice in which the 5′SL of the collagen α1(I) gene has been mutated (Parsons et al., submitted). Several independent cell isolates were used throughout the study. All cells were cultured in Dulbecco's modified Eagle's medium supplemented with 10% fetal bovine serum for up to 10 passages. Plasmid constructs and adenovirus preparation. The HA-tagged LARP6 clone and the deletion mutants have been described previously.^16 Adenoviruses were constructed by recloning of the constructs into the pAdCMVTRACK vector, followed by recombination with the pAdEasy vector and amplification, as described previously.^48 Expression of each construct was verified by Western blot analysis. The viruses made express both the full-size test protein and the green fluorescent protein (GFP), which is encoded by an independent transcription unit.^48 Expression of GFP served as control for viral transduction. RT-PCR analysis Total cellular RNA was isolated using an RNA isolation kit (Sigma). RT-PCRs were performed with 100 ng of total RNA or using rTth reverse transcriptase (Boca Scientific, Boca Raton, Fla.). [^32P]dCTP was included in the PCR step to label the products, which were resolved on sequencing gels, as described previously.^8,31,49,50 When RNA from polysomal fractions was analyzed, an equal aliquot of each fraction was used. The number of cycles was adjusted to within the linear range of the reaction. The primers used for RT-PCR were as follows: h-collagen α1(I), 5′ primer […] (SEQ ID NO:3) and 3′ primer […] (SEQ ID NO:4); h-collagen α2(I), 5′ primer […] (SEQ ID NO:5) and 3′ primer […] (SEQ ID NO:6).
Protein concentration was estimated by the Bradford assay, with bovine serum albumin as standard.^51 Western blot analyses of cellular proteins were performed using 50 μg of protein. For Western blot analysis of secreted proteins, equal numbers of cells were seeded, serum-free medium was added to the cells, and incubation continued for 3 h. The medium was collected, and an aliquot was analyzed directly by Western blot analysis. Use of serum free medium in collecting secreted proteins is essential because fetal calf serum contains substantial amounts of collagen and fibronectin.^15,31 For immunostaining, cells were seeded onto glass coverslips. After treatment, the cells were fixed with 4% paraformaldehyde for 30 min at room temperature and permeabilized with 0.5% Triton X-100 in phosphatebuffered saline (PBS) for 10 min. After the cells had been blocked with 10% goat serum/5% bovine serum albumin in PBS for 1 h at room temperature, they were incubated with primary antibody overnight at 4° C., washed, and visualized with AlexaFluor594-conjugated or Cy-2-conjugated secondary antibodies. The cells were mounted using VECTASHIELD mounting medium containing […], 6-diamidino-2-phenylindole (Vector Laboratories), and images were taken by a Leica TCS SP2 AOBS laser confocal microscope equipped with a Chameleon Ti: Sapphire multiphoton laser. Optical sections were processed with LCSLite software.
To assess the role of nonmuscle myosin in collagen synthesis, we disrupted nonmuscle myosin filaments in two different cell types: primary human lung fibroblasts and primary scleroderma skin fibroblasts. These cells are responsible for lung and skin fibrosis. […]

wild-type (WT) MEFs = experiment: Western blot analysis of collagen α1(I) polypeptide, WT MEFs; format: cell-based, mouse; settings: ML-7 treatment
Experimental: ML-7, blebbistatin, cytochalasin B, puromycin, and cycloheximide were purchased from Sigma. ML-7 was used at 40 μM, blebbistatin was used at 100 μM, and cytochalasin B was used at 20 μM. Cells were incubated with the drugs for 16 h before analysis. Puromycin (200 μg/ml) and cycloheximide (100 μg/ml) were added to the cells for 2 h. Human lung fibroblasts have been described previously.16 Scleroderma fibroblasts were purchased from the European Collection of Cell Cultures (cell line BM0070) and derived from the skin of a scleroderma patient. MEFs were derived from knock-in mice in which the 5′SL of the collagen α1(I) gene has been mutated (Parsons et al., submitted). Several independent cell isolates were used throughout the study. All cells were cultured in Dulbecco's modified Eagle's medium supplemented with 10% fetal bovine serum for up to 10 passages. […] [^32P]dCTP was included in the PCR step to label the products, which were resolved on sequencing gels, as described previously.^8,31,49,50 When RNA from polysomal fractions was analyzed, an equal aliquot of each fraction was used. […]
(§1) Protein concentration was estimated by the Bradford assay, with bovine serum albumin as standard.^51 Western blot analyses of cellular proteins were performed using 50 μg of protein. […] The medium was collected, and an aliquot was analyzed directly by Western blot analysis. […]

[1] = tested on: lung fibroblasts and scleroderma fibroblasts; experiment: Intracellular collagen degradation with proteosome inhibitor epoxomycin, Western blot; format: cell-based, human
Description: FIG. 3 Disruption of nonmuscle myosin by ML-7 results in secretion of homotrimeric type I collagen. (a) ML-7 disrupts nonmuscle myosin filaments. Immunostaining of nonmuscle myosin IIB in control lung fibroblasts (CON) and in lung fibroblasts treated with ML-7 (ML-7). […] Western blot analysis of control cells (lane 1) and cells treated with ML-7 (lane 2) using anti-myosin IIB antibody (MYO IIB). Fibronectin (FIB), loading control. (c) Effect of ML-7 on collagen secretion from lung fibroblasts. Western blot analysis of cellular proteins from control cells (lane 2) and ML-7-treated cells (lane 1), and of medium proteins from control cells (lane 4) and ML-7-treated cells (lane 3). COL1A1, collagen α1(I) polypeptide; COL1A2, collagen α2(I) polypeptide; FIB, fibronectin as loading control. […] The medium samples from (c) were analyzed under reducing conditions (lanes 1 and 2) and nonreducing conditions […] with antibody specific for collagen α1(I) polypeptide. […] Intracellular collagen was analyzed by Western blot analysis using antibodies against collagen α1(I) polypeptide (COL1A1) and α2(I) polypeptide (COL1A2). […]
as §1

With `O=S(=O)(c1cccc2c(I)cccc12)N1CCCNCC1` [ML-7] the “secretion of collagen α1(I) polypeptide into the medium” value (human lung fibroblasts; cytochalasin B 20 μM) was “found in similar amounts”, the “secretion of collagen α2(I) polypeptide into the medium” value (human lung fibroblasts; cytochalasin B 20 μM) was “secreted only in trace amounts” and the secretion/expression of fibronectin (human lung fibroblasts; cytochalasin B 20 μM) was “not affected”. The “intracellular level of collagen α1(I) and α2(I) polypeptides” value (human lung fibroblasts) was “not significantly affected”, the “cellular level of α1(I) polypeptide” value (wild-type (WT) MEFs) was “did not change” and the “secretion of α1(I) polypeptide into the medium” value (wild-type (WT) MEFs) was “drastically reduced”. The “intracellular level of both collagen polypeptides” value ([1]; ML-7 in combination with epoxomycin vs epoxomycin alone, lung and scleroderma fibroblasts) was “significantly increased” and the “additional (degradation) product of approximately 120 kDa” value ([1]; epoxomycin and ML-7, not seen with epoxomycin alone) was “prominently seen”.
